Literature values in patent US7745427B2, “CGRP receptor antagonists” (Merck Sharp & Dohme Corp., priority 2004, dated 2010).
No end group written: not given here.

Assays:
[1] = tested on: facial blood flow; conditions: marmoset; Doods et al. 2000
[2] = tested on: acute attacks of migraine; conditions: clinical trials; Olesen et al. 2004
[3] = tested on: middle meningeal artery; conditions: rats, prior administration; Williamson et al. 1997
[4] = tested on: facial blood flow; conditions: rat; Escott et al. 1995

Row | Compound | increase in facial blood flow [1] | treating acute attacks of migraine [2] | increase in diameter of the middle meningeal artery [3] | increased facial blood flow [4]
1 | NCCCC[C@H](NC(=O)[C@@H](Cc1cc(Br)c(O)c(Br)c1)NC(=O)N1CCC(N2Cc3ccccc3NC2=O)CC1)C(=O)N1CCN(c2ccncc2)CC1 [BIBN4096BS] | blocked | effective | – | –
2 | CGRP(8-37): "a peptide CGRP antagonist" (VTHRLAGLLSRSGGVVKNNFVPTNVGSKAF; ends and bridges not checked; UniProt P06881 90-119, looked up, fragment) | – | – | blocked | inhibited
